Measured values reported in patent publication US20070218134A1, “Compositions Comprising Organic Compounds” (priority 2003, published 2007).
Counter-ions that a name gives are not always drawn.

Experiments:
[1] = degradation kinetics of fluvastatin in aqueous solution at various pH; assay type: physicochemical
Excerpt: Certain HMG-CoA reductase inhibitors are extremely susceptible to degradation at pH below about 8. An example of such a compound comprises the compound having the USAN designation fluvastatin sodium (hereinafter “fluvastatin”), of the chemical designation: R*,S*-(E)(±)-7-[3-(4-fluorophenyl)-1-(1-methyl-ethyl)-1H-indol-2-yl]-3,5-dihydroxy-6-heptenoic acid, sodium salt, [see European Patent Application EP-A-114027].
For example, the degradation kinetics of fluvastatin in aqueous solution at various pH is illustrated below:
The above-indicated instability of fluvastatin and related HMG-CoA reductase compounds is believed to be due to the extreme lability of the β,δ-hydroxy groups on the heptenoic acid chain and the presence of the double bond, such that at neutral to acidic pH, the compounds readily undergo elimination or isomerization or oxidation reactions to form conjugated unsaturated aromatic compounds, as well as the threo isomer, the corresponding lactones, and other degradation products.

[2] = solubility of pitavastatin depending on pH; assay type: physicochemical; settings: acidic pH conditions

Row | SMILES | % fluvastatin remaining at 37° C. ([1]; pH 1.0, after 1 hour) [%] | % fluvastatin remaining at 37° C. ([1]; pH 1.0, after 24 hrs) [%] | % fluvastatin remaining at 37° C. ([1]; pH 4.0, after 1 hour) [%] | % fluvastatin remaining at 37° C. ([1]; pH 4.0, after 24 hrs) [%] | % fluvastatin remaining at 37° C. ([1]; pH 6.0, after 1 hour) [%] | % fluvastatin remaining at 37° C. ([1]; pH 6.0, after 24 hrs) [%] | % fluvastatin remaining at 37° C. ([1]; pH 7.8, after 1 hour) [%] | % fluvastatin remaining at 37° C. ([1]; pH 7.8, after 24 hrs) [%] | solubility of pitavastatin [2]
1 | CC(C)n1c(/C=C/C(O)CC(O)CC(=O)O)c(-c2ccc(F)cc2)c2ccccc21 (stereo not drawn) [fluvastatin, R*,S*-(E)(±)-7-[3-(4-fluorophenyl)-1-(1-methyl-ethyl)-1H-indol-2-yl]-3,5-dihydroxy-6-heptenoic acid, sodium salt] | 10.9 | 0 | 86.7 | 25.2 | 99.6 | 97.1 | 98.3 | 98.0 | 
2 | O=C(O)C[C@H](O)C[C@H](O)/C=C/c1c(C2CC2)nc2ccccc2c1-c1ccc(F)cc1 [pitavastatin] |  |  |  |  |  |  |  |  | higher
